Reference: patent US20120301468A1, “ANTI-MN ANTIBODIES AND METHODS OF USING SAME” (BAYER HEALTHCARE LLC, priority 2005, published 2012)
Read-outs that look alike come from different tables or passages of the source.

Experiments:
In vivo distribution = experiment: In vivo distribution; design: species or system mice; settings: Table 4 profile
Text: The Maestro™ in-vivo imaging system (CRI, Woburn, Mass.) with multi-spectral acquisition and analysis is designed to eliminate auto-fluorescence background. Mabs 3ee9 of BAY 79-4620, M75 (mouse monoclonal recognizing MN) and control human IgG, were conjugated with Alexa Fluor 750 (Invitrogen Cat# A20011) according to manufacturer's instructions. The ratio of Protein/AF750 (mol/mol) was 1/5.9 for 3ee9, 8.9 for human IgG, and 6.0 for M75.
Twelve days before the injection of each fluorescence-labeled antibody, Harlan Balb/C nudes were implanted with MIAPaCa-2 (low MN-expressing; 7.5×10^6 cells in 50% Matrigel) subcutaneously in the right flank, and huMN-MIAPaCa2 (MN transfected stable cell line; 5×10^6 cells in 50% Matrigel) subcutaneously in the left flank. 4 μg of conjugated antibody was injected on Day 0 (12 days post implant) to each animal. Imaging was done on Day 4, Day 5 and Day 10. Data were collected using animals that were anaesthetized (100 mg/kg ketamine/10 mg/kg xylazine, i.p.), and placed inside the imaging system. Multi-spectral image cubes (series of images) were acquired with images spaced every 10 nm throughout the spectral range of 680 to 950 nm, which covered the Near Infrared (NIR) range.
Each image was exposed for 5 seconds. False-colored images were synthesized from the spectral cube using Maestro software and scaled to visible brightness using ImagePro Plus 6.0. […]

[1] = tested on: MaTu human mammary carcinoma xenograft; settings: for tumors showing signs of re-growth: ˜3 months after cessation, 10 mice per group; for animals remained tumor-free: ˜90 days after cessation
Method: Anti-MN antibodies were conjugated to cytotoxic small molecules using protocols that are known in the art (e.g., Liu, et al., Proc. Natl. Acad. Sci. 93:8618-8623, 1996). Human mammary xenograft, MaTu cells were maintained as adherent cultures in RPMI supplemented with 10% FBS. Ncr nude mice (8-12 weeks of age) were inoculated subcutaneously in the right flank with 5×10^6 cells in 0.1 mL of 80% matrigel/20% HBSS. When tumors reached an average size of ˜180 mg (6 days), treatment was initiated. Monoclonal antibodies conjugated to cytotoxic small molecules were administered i.v. once every four days (Q4Dx3) at a dose of 10 mg/kg. Control mice were treated with PBS or an unconjugated monoclonal antibody. Daily examinations into the health status of each animal were conducted. Each experimental group consisted of 10 mice and the dosing volume was 0.1 mL/10 g body weight. The length and width of each tumor was measured by using an electronic caliper 2-3 times per week and tumor weights (mg) were calculated based on the formula of [length (mm)×width (mm)^2]/2. All data, including daily observations, obtained throughout the course of the study were documented. Tumor growth inhibition (TGI) was calculated as 1−T/C×100, where T=final tumor weights from a treated group, and C=final tumor weights from the control group.
The in vivo anti-tumor effect of 3ee9/MMAE was examined in 6 different human xenograft tumor models. These models were established through subcutaneous implantation of human tumor cells into female athymic NCr (nu/nu) mice (Taconic, N.Y.). The human tumor xenograft models evaluated included the MaTu human mammary carcinoma model, the HT-29 and Colo-205 human colo-rectal carcinoma (CRC) models, PC3MM2 prostate carcinoma model, the HCT-15 multi-drug resistant (P-gp) CRC model, and the MiaPaCa2 human pancreatic model. PBS was used as a vehicle, and dosing solutions were prepared fresh daily. The dosing volume was 0.1 mL/10 g (10 mL/kg).
The length and width of each tumor were measured using an electronic caliper 2-3 times per week, and tumor weights (mg) were calculated based on the formula of [length (mm)×width (mm)^2]/2. All data, including daily observations, obtained throughout the course of the study were documented in Anti-tumor Data Acquisition System (ADAS). […] Tumor growth inhibition (TGI) was calculated as (1-T/C)×100, where T=final tumor weights from a treated group after the last dose, and C=final tumor weights from the control group after the last dose. In addition, anti-tumor efficacy was measured as the incidence of responses (or responders or regressions) defined as tumors with ≦50% of their initial size. A minimum duration of 7 days is required for a response to be considered durable.
Human mammary xenograft, MaTu cells were maintained as adherent cultures in RPMI supplemented with 10% FBS. NCr nude mice (8-12 weeks of age) were inoculated subcutaneously in the right flank with 5×10^6 cells in 0.1 mL of 80% matrigel/20% HBSS. When tumors reached an average size of ˜180 mg (7 days), treatment was initiated. […] Control mice were treated with PBS or an un-conjugated monoclonal antibody at a dose of 10 mg/kg.
Daily examinations into the health status of each animal were conducted. Each experimental group consisted of 10 mice, and the dosing volume was 0.1 mL/10 g body weight. The length and width of each tumor was measured by using an electronic caliper 2-3 times per week, and tumor weights (mg) were calculated based on the formula of [length (mm)×width (mm)^2]/2. All data, including daily observations, obtained throughout the course of the study were documented. Tumor growth inhibition (TGI) was calculated as 1−T/C×100, where T=final tumor weights from a treated group, and C=final tumor weights from the control group.

[2] = tested on: low MN-expressing MIAPaCa2 pancreatic xenograft; experiment: MIAPaCa2 xenograft model; type: in vivo, mice
Method: To better understand the relationship between MN expression and antitumor efficacy, xenograft efficacy studies were conducted using a low MN-expressing pancreatic model, MIAPaCa2 and high MN-expressing huMN-MIAPaCa2 model. This latter line was derived by engineering the MIAPaCa2 line to stably express MN. […] 3ee9/MMAE dosed at 10 mg/kg only produced 50% TGI.

[3] = tested on: mitochondria-associated CA5; experiment: Binding to CA5
MN-negative cells (DLD1) = experiment: Antibody internalization (Cellomics), DLD1; type: cell-based

For “3ee9/MMAE: human anti-MN IgG1 antibody 3ee9 conjugated to Monomethylauristatin E (MMAE)”, the In vivo distribution (In vivo distribution) was “normal”, the body weight loss ([1]; 60 mg/kg i.v. Q4Dx3) was ~20% and the lethality ([1]; 60 mg/kg i.v. Q4Dx3) was 10%. The “maximum tolerated dose (MTD)” value ([1]; MaTu tumor-bearing mice, i.v. Q4Dx3) was 60 mg/kg, the “therapeutic index (MTD divided by MED)” value ([1]; MaTu xenograft) was ~96 and the tumor regression ([1]; MaTu, 0.625 mg/kg Q4Dx3) was “No tumor regression”. The “inhibition of tumor growth” value ([1]; MaTu, 0.625 mg/kg Q4Dx3, end of dosing) was 62%, the “time tumors remained stable after cessation of treatment” value ([1]; MaTu, 1 mg/kg Q4Dx3) was ~2 weeks and the “tumors responsive to treatment” value ([1]; MaTu, 1 mg/kg Q4Dx3) was 30%. For the same substance, the TGI ([1]; MaTu, 1 mg/kg i.v. Q4Dx3, end of dosing) was 67%, the “animals exhibiting tumor regressions” value ([1]; MaTu, 1.25 mg/kg Q4Dx3) was 80% and the “inhibition of tumor growth” value ([1]; MaTu, 1.25 mg/kg Q4Dx3, end of dosing) was 81%. For the same substance, the “animals responded to treatment” value ([1]; MaTu, 2.5 mg/kg and higher Q4Dx3) was 100%, the TGI ([1]; MaTu, 3 mg/kg i.v. Q4Dx3, end of dosing) was 72% and the “tumors showing signs of re-growth” value ([1]; MaTu, 3 mg/kg) was 3 tumors. For the same substance, the animals remained tumor-free ([1]; MaTu, 3 mg/kg) was 70%, the TGI ([1]; MaTu, 10 mg/kg i.v. Q4Dx3, end of dosing) was 78% and the “tumors showing signs of re-growth” value ([1]; MaTu, 10 mg/kg) was 1 tumors. For the same substance, the animals remained tumor-free ([1]; MaTu, 10 mg/kg) was 90%, the tolerability ([1]; MaTu, 1, 3 and 10 mg/kg i.v. Q4Dx3) was “well-tolerated at all doses examined” and the “inhibition of tumor growth” value ([1]; MaTu, 2.5, 5, 10, 30 and 60 mg/kg Q4Dx3) was ~90%. For the same substance, the animals responded ([1]; MaTu, 3 and 10 mg/kg Q4Dx3) was 100%, the “minimum efficacious dose (MED)” value ([1]; MaTu, i.v. Q4Dx3) was 0.625 mg/kg and the “In vivo activity: MED” value ([1]; Table 4 profile) was 1 mg/kg. For the same substance, the “In vivo activity: MTD” value ([1]; Table 4 profile) was 60 mg/kg, the tolerability ([1]; all other treatment groups (0.625 to 30 mg/kg) Q4Dx3) was “well tolerated” and the “effect in inhibiting growth” value [2] was “minimal effect”. The “binding to CA5” value [3] was “Binding to mitochondria-associated CA5 was observed” and the internalization (MN-negative cells (DLD1)) was “not by MN-negative cells (DLD1)”.
